{
  "source": "patent US6087336A",
  "about": "“Peptide derivatives useful in treating autoimmune diseases” (Zeneca Limited, priority 1996, dated 2000)",
  "key": {"HLA-DR4Dw14": {"system": "HLA-DR4Dw14", "test": "Variant to Test A: peptide selectivity binding assay, HLA-DR4Dw14", "design": "species or system Human", "description": "(§1) As a variant to test A, the ability of a peptide of the invention to bind to one or more HLA-DR molecules was assessed as follows:\n(§2) (i) Purification of HLA-DR Types from Cell Lines\n(§3) The method used was a modification of that described by Gorga et al, 1987, J.Biol.Chem. 262, 16087-16094. Human HLA-DR antigens were purified from various cell lines by immunoaffinity chromatography. […] Protein content was determined by a Biorad protein assay and purity by SDS-PAGE electrophoresis. […]\n(§4) 200 nM biotin-FHA307-320 in phosphate buffered saline (PBS) was incubated with either purified HLA-DR1, DR2, DR4Dw4, DR4Dw13 or DR4Dw14, (2-20μg/ml) in V-well microtitre plates (Nunc) with or without inhibitor peptides in assay buffer (PBS, 0.01% NP40 (Sigma.)) For DR3 inhibition, 400 nM Biotin-Ahx-(D)Ala-Ala-Ala-Che-lle-Ala-Ala-Ala-Thr-Leu-Lys-Ala-Ala-(D)Ala-OH was incubated with purified DR3 (20 μg/ml.), and incubated as above. After 48 hours, the incubates were treated, and absorbance readings taken as described in Test A. The inhibitory activity of peptides, expressed as IC50 values, was calculated using Microcal Origin software on a PC."}, "HLA-DR2": {"system": "HLA-DR2", "test": "Variant to Test A: peptide selectivity binding assay, HLA-DR2", "design": "species or system Human", "description": "as §1, §2, §3, §4"}, "HLA-DR3": {"target": "HLA-DR3", "test": "Variant to Test A: peptide selectivity binding assay, HLA-DR3", "design": "species or system Human", "settings": "did not bind significantly", "description": "as §1, §2, §3, §4"}, "HLA-DR4Dw4": {"target": "T1, HLA-DR4Dw4 (Homo sapiens, UniProt P01903+P01911, A100K/A169T/F76Y/I96L/K127E/L162R/M171V/N62H/P40V/Q125Y/R42H/S133A/S149N/S66Y/V115G/V209L/W38E)", "T1 construct": "a cDNA encoding the β chain is cloned into the transfer vector pAcUW1; made in house; host or cells: Sf21 insect cells, double-recombinant baculovirus", "test": "Variant to Test A: peptide selectivity binding assay, HLA-DR4Dw4", "description": "as §1, §2, §3, §4"}, "HLA-DR1": {"target": "T2, HLA-DR1 (Homo sapiens, UniProt P01903+P01911, A100R/D57E/F55L/F60I/F76Y/I96L/L162R/M171V/P40L/Q125E/R42F/V115G/Y59C)", "T2 construct": "Human HLA-DR antigens were purified from various cell lines; endogenous in cells; host or cells: Hom 2 cell line", "test": "Variant to Test A: peptide selectivity binding assay, HLA-DR1", "description": "as §1, §2, §3, §4"}},
  "data": [
    {"substance": "Phv-Ala-Arg-Ala-IIb-Ala-Arg-Ala-Papa-NH2 [Example 23]", "values": [
      {"measurement": "binding to HLA-DR4Dw14", "setting": "HLA-DR4Dw14", "value": "bind significantly"},
      {"measurement": "binding to HLA-DR2", "setting": "HLA-DR2", "value": "bind significantly"},
      {"measurement": "IC50", "setting": "HLA-DR3", "value": "> 100", "unit": "µM"},
      {"measurement": "binding to HLA-DR4Dw4", "setting": "HLA-DR4Dw4", "value": "bind significantly"},
      {"measurement": "binding to HLA-DR1", "setting": "HLA-DR1", "value": "bind significantly"}
    ]}
  ]
}
